Test results from patent publication US4555522A, “Antithrombotic and/or antihypertensive compositions” (T & R Chemicals, Inc., priority 1983, dated 1985).
Read-outs that look alike come from different tables or passages of the source.

How the values were obtained:
[1] = system: platelet aggregation in platelet-rich plasma (PRP); experiment: In vitro inhibition of platelet aggregation, method of Born; format: cell-based; settings: Oryctolagus cuniculus, read-out: IC50 of diethyl sulphite
Method: (§1) In order to evaluate the effectiveness of diethyl sulphite as an anti-platelet aggregatory agent the following experiments are carried out.
(A) In vitro Platelet-rich plasma (PRP) is prepared from a rabbit and the IC50 value is determined according to the method of Born, "Nature", 194, 927-929 (1962). The IC50 is the estimated concentration of the agent necessary to inhibit 50 percent of the platelet aggregation. The data tabulated below is obtained.

thrombotic disorders = experiment: Treatment of thrombotic disorders in rats; format: in vivo, rat; settings: aqueous suspension, e.g. 0.5 to 2.5 millimolar
Method: (§2) Dimethyl sulphite and diethyl sulphite are successively prepared by esterifying 2 moles of each respective alkanol with 1 mole of thionyl chloride. The diethyl ester is a colourless liquid (b.p. 159°) with an aromatic odour, believed to have the following formula: [drawing 17] A composition based on this compound, e.g. an aqueous suspension having a concentration in the range from 0.5 to 2.5 millimolar, is effective in the treatment of thrombotic and hypertensive disorders in rats. It is theorized to be activated in vivo by virtue of its conversion to sulphite ions.

platelet aggregation = experiment: Ex vivo inhibition of platelet aggregation after injection into a rabbit; settings: 219 mg injected, 3.06 kg rabbit, about 10 millimolar in blood, 10 minutes
Method: as §1
(B) Ex vivo A rabbit weighing 3.06 kg is injected with 219 mg of diethyl sulphite to give a concentration of about 10 millimolar diethyl sulphite in the blood. After 10 minutes, a blood sample is withdrawn and the percent inhibition of platelet aggregation, as compared to a blood sample taken before injection, is determined.

hypertensive disorders = experiment: Treatment of hypertensive disorders in rats; format: in vivo, rat; settings: aqueous suspension, e.g. 0.5 to 2.5 millimolar
Method: as §2

CCOS(=O)OCC [diethyl sulphite] was tested, and the IC50 ([1]; stimulus: U-46619, rabbit PRP) was 11 mM, the IC50 ([1]; stimulus: adenosine diphosphate (ADP), rabbit PRP) was 35 mM and the IC50 ([1]; stimulus: arachidonic acid, rabbit PRP) was 6.25 mM. The “effectiveness in the treatment of thrombotic disorders” value (thrombotic disorders) was “effective”, the “percent inhibition of platelet aggregation” value (“percent inhibition” below) (platelet aggregation; stimulus: ADP) was 29% and the “percent inhibition” value (platelet aggregation; stimulus: U-46619) was 12%. The “percent inhibition” value (platelet aggregation; stimulus: arachidonic acid) was 0% and the “effectiveness in the treatment of hypertensive disorders” value (hypertensive disorders) was “effective”.
